In data set [1] the test system is ALS (acetolactate syntase) from barnyardgrass seedlings. As to the kind of experiment: ALS (acetolactate syntase) inhibition test, barnyardgrass enzyme. The class given is biochemical. The following applies: 10,000 ppm (0.5 μg/0.5 ml) of compound; 1 hour at 30° C.; absorbance at 525 nm. How it is done: (§1) To determine the selectivity in enzyme level between crops and weeds, an ALS inhibition test was conducted using pea as a typical broadleaf crop and barnyardgrass as a representative gramineous weeds.
(§2) After seeds of pea and barnyardgrass were allowed to germinate at 25° C. for 8-14 days in a dark place, partially-purified suspensions (Suspensions A) of acetolactate syntase were separately obtained from the seedlings in accordance with the procedures described in the literature, Plant Physiology, 75, 827-831. In a test tube, 0.5 mg of one of test compounds was weighed, followed by the addition of 0.15 ml of a 20 mM K2 HPO4 solution and 0.25 ml of a reaction substrate medium which consisted of 40 mM of K2 HPO4, 40 mM of sodium pyruvate, 1 mM of TPP, 1 mM of MgCl2 and 20 μM of FAD so that 0.4 ml of a reaction solution (Solution B) was prepared. Added to 0.4 ml of Solution B was 0.1 ml of Suspension A. After the resultant mixture was shaken for 1 hour in a thermostat water bath controlled at 30° C., 50 μl of 6N sulfuric acid were added to terminate the reaction.
(§3) Next, the test tube with the reaction-terminated liquid mixture contained therein was transferred into a thermostat water bath controlled at 60° C. and was heated for 15 minutes. Thereafter, 0.5 ml of a 0.5% creatine solution and 0.5 ml of a 5% alkaline α-naphthol solution were added, and the resultant mixture was maintained at 60° C. for 15 minutes. As a result, the test solution developed a pink-to-red color. After the above operation, the absorbance of the test solution at 525 nm was measured by a spectrophotometer (Absorbance 1 of Test Compound).
(§4) Further, the absorbance (Absorbance 2 of Blank) of a solution obtained by subjecting a portion of Solution B to the above procedures without addition of any test compound and the absorbance (Absorbance 3 of sulfuric acid) of another solution obtained by subjecting another portion of Solution B to the above procedures which using 50 μl of 6N sulfuric acid as a test compound were also measured.

Data set [2] relates to ALS (acetolactate syntase) from pea seedlings. Briefly: ALS (acetolactate syntase) inhibition test, pea enzyme. The data set is classed as biochemical. The following applies: 10,000 ppm (0.5 μg/0.5 ml) of compound; 1 hour at 30° C.; absorbance at 525 nm. How it is done: as §1, §2, §3, §4
Data set [3] has as its system Amaranth (Amaranthus viridis). As to the kind of experiment: Upland soil application test, amaranth. The data set is classed as in vivo. The following applies: 1200 h, soil application one day after seeding, 50 g ai/a, wettable powder, fresh weight on 50th day after spray, read-out: Herbicidal effects Amaranth (Amaranthus viridis). How it is done:
(§5) Resin-made 1/1000-are pots were filled with the soil of an upland field. After they were fertilized, cotton and soybean were seeded and 3 cm soil covering was applied. In addition, amaranth, common lambs-quarters, barnyardgrass, green foxtail, large crabgrass and johnsongrass were seeded and 1 cm soil covering was applied. One day later, a wettable powder prepared from a predetermined amount of each test compound in a similar manner to the procedures described in Formulation Example 1 was diluted with water and then sprayed evenly at an application rate equal to 10 l per are onto the surface of the soil by means of a pressure-operated sprayer. The weeds and crops were allowed to grow in a green house and influence to them were observed on the 50th day after the spray. The degree of damages of each test plant and the degree of injury to each crop were determined by measuring fresh weight in each group and indicated by % calculated according to the following formula. [formula]

In data set [4] the test system is common lambsquarters. As to the kind of experiment: Upland soil application test, common lambsquarters. The class given is in vivo. The following applies: Chenopodium album, 1200 h; soil application one day after seeding, 50 g ai/a, wettable powder, fresh weight on 50th day after spray; read-out: Herbicidal effects Common lambquarters. As for the experimental part:
as §5

Data set [5] has as its system Barnyardgrass (Echinochloa crusgalli). As to the kind of experiment: Upland soil application test, barnyardgrass. The following applies: Echinochloa crus-galli, 1200 h; soil application one day after seeding, 50 g ai/a, wettable powder, fresh weight on 50th day after spray; read-out: Herbicidal effects Barnyardgrass (Echinochloa crusgalli). The data set is classed as in vivo. As for the experimental part: as §5

The test system of data set [6] is Foxtail (Setaria viridis). As to the kind of experiment: Upland soil application test, green foxtail. The settings on record: 1200 h, soil application one day after seeding, 50 g ai/a, wettable powder, fresh weight on 50th day after spray, read-out: Herbicidal effects Foxtail (Setaria viridis). The class given is in vivo. As for the experimental part: as §5
The test system of data set [7] is Crabgrass (Digitaria adscendens). As to the kind of experiment: Upland soil application test, large crabgrass. The data set is classed as in vivo. The settings on record: 1200 h, soil application one day after seeding, 50 g ai/a, wettable powder, fresh weight on 50th day after spray, read-out: Herbicidal effects Crabgrass (Digitaria adscendens). As for the experimental part: as §5

The test system of data set [8] is Johnsongrass. Briefly: Upland soil application test, johnsongrass. The class given is in vivo. The settings on record: Sorghum halepense, 1200 h; soil application one day after seeding, 50 g ai/a, wettable powder, fresh weight on 50th day after spray; read-out: Herbicidal effects Johnsongrass. As for the experimental part: as §5
The test system of data set [9] is Soybean (Glycine max). Briefly: Upland soil application test, crop injury soybean. The settings on record: soil application one day after seeding, 50 g ai/a, wettable powder, fresh weight on 50th day after spray. The class given is in vivo. As for the experimental part:
as §5

Data set [10] deals with Cotton (Gossypium indicum). As to the kind of experiment: Upland soil application test, crop injury cotton. The class given is in vivo. The following applies: soil application one day after seeding, 50 g ai/a, wettable powder, fresh weight on 50th day after spray. As for the experimental part: as §5
Data set [11] relates to Amaranth (Amaranthus viridis). As to the kind of experiment: Upland foliar application test, amaranth. The data set is classed as in vivo. The settings on record: 960 h, foliar application at stage of 2-3 leaves, 50 g ai/a, emulsion, 40th day after spray, read-out: Herbicidal effects Amaranth (Amaranthus viridis). How it is done: as §5
(§6) Resin-made 1/1000-are pots were filled with the soil of an upland field. After they were fertilized, cotton and soybean were seeded and 3 cm soil covering was applied. Five days later, amaranth, common lambsquarters, barnyardgrass, green foxtail, large crabgrass and johnsongrass were seeded and 1 cm soil covering was applied. They were allowed to grow in a green house. When each plant grew to the stage of 2-3 leaves, an emulsion formulated from a predetermined amount of each test compound in a similar manner to the procedures described in Formulation Example 11 was diluted with water and then sprayed at a predetermined application rate by means of a pressure-operated sprayer. The application rate was controlled at 5 l per are. Influence to the crops and weeds were observed on the 40th day after the spray of the herbicides. The results are shown in Table 4 in which the degree of damages of each test plant and the degree of injury to each crop are shown in a similar manner to Test 2.

Data set [12] has as its system common lambsquarters. Briefly: Upland foliar application test, common lambsquarters. The class given is in vivo. The following applies: Chenopodium album, 960 h; foliar application at stage of 2-3 leaves, 50 g ai/a, emulsion, 40th day after spray; read-out: Herbicidal effects Common lambquarters. How it is done: as §6
For data set [13], the system named is Barnyardgrass (Echinochloa crusgalli). Briefly: Upland foliar application test, barnyardgrass. The data set is classed as in vivo. The settings on record: Echinochloa crus-galli, 960 h; foliar application at stage of 2-3 leaves, 50 g ai/a, emulsion, 40th day after spray; read-out: Herbicidal effects Barnyardgrass (Echinochloa crusgalli). As for the experimental part:
as §6

Data set [14] deals with Foxtail (Setaria viridis). Briefly: Upland foliar application test, green foxtail. The data set is classed as in vivo. The settings on record: 960 h, foliar application at stage of 2-3 leaves, 50 g ai/a, emulsion, 40th day after spray, read-out: Herbicidal effects Foxtail (Setaria viridis). As for the experimental part:
as §5, §6

The test system of data set [15] is Crabgrass (Digitaria adscendens). As to the kind of experiment: Upland foliar application test, large crabgrass. The following applies: 960 h, foliar application at stage of 2-3 leaves, 50 g ai/a, emulsion, 40th day after spray, read-out: Herbicidal effects Crabgrass (Digitaria adscendens). The data set is classed as in vivo. As for the experimental part:
as §5, §6

The subject of data set [16] is Johnsongrass. Briefly: Upland foliar application test, johnsongrass. The settings on record: Sorghum halepense, 960 h; foliar application at stage of 2-3 leaves, 50 g ai/a, emulsion, 40th day after spray; read-out: Herbicidal effects Johnsongrass. The data set is classed as in vivo. As for the experimental part:
as §6

Data set [17] relates to Soybean (Glycine max). Briefly: Upland foliar application test, crop injury soybean. The settings on record: foliar application at stage of 2-3 leaves, 50 g ai/a, emulsion, 40th day after spray. The class given is in vivo. How it is done:
as §6

Data set [18] deals with Cotton (Gossypium indicum). Briefly: Upland foliar application test, crop injury cotton. The class given is in vivo. The settings on record: foliar application at stage of 2-3 leaves, 50 g ai/a, emulsion, 40th day after spray. As for the experimental part:
as §5, §6

The test system of data set [19] is johnsongrass emerging from rhizome. Briefly: Application test on johnsongrass emerging from rhizome. The data set is classed as in vivo. The settings on record: foliar application at stage of 4-5 leaves, application rate of active ingredient 20 (unit not given), emulsion, 50th day after spray. How it is done: as §5
Resin-made 1/1000-are pots were filled with the soil of an upland field. After they were fertilized, rhizome of johnsongrass were transplanted to the pots and 3 cm soil covering was applied. They were allowed to grow in a green house. When each johnsongrass grew to the stage of 4-5 leaves, an emulsion formulated from a predetermined amount of each test compound in a similar manner to the procedures described in Formulation Example 11 was diluted with water and then sprayed at a predetermined application rate by means of a pressure-operated sprayer. The application rate was controlled at 5 l per are. The effect of each compound against the johnsongrass emerging from its rhizome was observed on the 50th day after the spray of the herbicides. The results are shown in Table 5 in which the herbicidal effect against johnsongrass is shown in a similar manner to Test 2.

We go through four molecules from patent US5178662A, “Benzaldehyde acetal compounds, preparation process thereof, and herbicidal compositions containing the same as active ingredients” (Mitsui Toatsu Chemicals, Inc., priority 1990, dated 1993).

In the case of `COc1cc(OC)nc(Oc2ccccc2C=O)n1` [Comp. Comp'd B, reference compound], in data set [1], the “Enzymoreaction inhibition rate (%) Barnyardgrass” value worked out at 98%. Besides, in [2], the “Enzymoreaction inhibition rate (%) Pea” value worked out at 92%. Besides, the pest or weed control at 5000 g/ha in [3] worked out at 80%; in the data set on common lambsquarters [4], 85%; in [5], 100%; in data set [6] it was 100%; in data set [7], 100%; with Johnsongrass [8], 100%. Further, the pest or weed control at 5000 g/ha in [11] worked out at 80%; with common lambsquarters [12] it was 80%; in [13], 100%; in [14], 100%; in data set [15] it was 100%; with Johnsongrass [16], 100%. The “Crop injury Soybean (Glycine max)” value with Soybean (Glycine max) [9] and in the data set on Soybean (Glycine max) [17] was 100% throughout. The “Crop injury Cotton (Gossypium indicum)” value in [10] and in data set [18] was 100% in each case. In addition, the “Herbicidal effect against johnsongrass emerging from rhizome” value (shortened to “Herbicidal effect”) in data set [19] was 35%.

As for `CCCCCCCOC(OCCCCCCC)c1ccccc1Oc1nc(OC)cc(OC)n1` [Compound No. 6], the “Enzymoreaction inhibition rate (%) Barnyardgrass” value in [1] worked out at 100%. Also, in [2], the “Enzymoreaction inhibition rate (%) Pea” value worked out at 0%. In addition, the pest or weed control at 5000 g/ha in data set [3] was 95%; in the data set on common lambsquarters [4] it was 90%; in data set [5], 95%; in [6], 100%; in [7] it was 85%; with Johnsongrass [8] it was 100%. The pest or weed control at 5000 g/ha in data set [11] was 95%; with common lambsquarters [12], 90%; in data set [13], 95%; in data set [14], 95%; in data set [15], 90%; in the data set with Johnsongrass [16], 100%. The “Crop injury Soybean (Glycine max)” value with Soybean (Glycine max) [9] and in the data set on Soybean (Glycine max) [17] was 0% each time. The “Crop injury Cotton (Gossypium indicum)” value in data set [10] and in [18] was 0% in each case. For the same molecule, the “Herbicidal effect” value in [19] worked out at 85%.

`CCCCOC(OCCCC)c1ccccc1Oc1nc(OC)cc(OC)n1` [Compound No. 3, 2-(4,6-dimethoxypyrimidin-2-yloxy)benzaldehyde di-n-butylacetal]: the “Enzymoreaction inhibition rate (%) Barnyardgrass” value in data set [1] worked out at 100%. Besides, the “Enzymoreaction inhibition rate (%) Pea” value in data set [2] was 0%. Besides, the pest or weed control at 5000 g/ha (in data set [3]; in the data set on common lambsquarters [4]; in data set [5]; in data set [6]; in data set [7]; in the data set with Johnsongrass [8]) was 100% in each case. In addition, the pest or weed control at 5000 g/ha (in data set [11]; in the data set on common lambsquarters [12]; in [13]; in [14]; in data set [15]; in the data set with Johnsongrass [16]) was 100% throughout. Moreover, the “Crop injury Soybean (Glycine max)” value with Soybean (Glycine max) [9] and in the data set with Soybean (Glycine max) [17] was 0% throughout. For the same molecule, the “Crop injury Cotton (Gossypium indicum)” value in [10] and in [18] was 0% in each case. The “Herbicidal effect” value in [19] stood at 100%.

Consider `CCCCCOC(OCCCCC)c1ccccc1Oc1nc(OC)cc(OC)n1` [Compound No. 4], for which, in data set [1], the “Enzymoreaction inhibition rate (%) Barnyardgrass” value is 100%. The “Enzymoreaction inhibition rate (%) Pea” value in [2] came to 0%. Further, the pest or weed control at 5000 g/ha (in data set [3]; in the data set with common lambsquarters [4]; in data set [5]; in [6]; in data set [7]; in the data set on Johnsongrass [8]) was 100% throughout. The pest or weed control at 5000 g/ha (in [11]; in the data set with common lambsquarters [12]; in data set [13]; in [14]; in data set [15]; with Johnsongrass [16]) was 100% in each case. Besides, the “Crop injury Soybean (Glycine max)” value in the data set on Soybean (Glycine max) [9] and with Soybean (Glycine max) [17] was 0% throughout. In addition, the “Crop injury Cotton (Gossypium indicum)” value in data set [10] and in [18] was 0% in each case. The “Herbicidal effect” value in data set [19] is listed as 100%.
